Experimental data from article PMC8879119, “α-Glucosidase Inhibitory Activity and Anti-Adipogenic Effect of Compounds from Dendrobium delacourii” (Molecules, 2022).
Where two headings read alike, the source gives them in different places.

How the values were obtained:
[1] = target: T1, α-glucosidase (Saccharomyces cerevisiae, UniProt P53341); assay: biochemical
T1 construct: purchased Sigma-Aldrich (St. Louis, MO, USA)
Method: In this study, each compound was initially tested at 100 μg/mL.
(§1) Mass spectra were recorded on a Bruker micro TOF mass spectrometer (ESI-MS). NMR spectra were recorded on a Bruker Avance DPX-300FT-NMR spectrometer or a Bruker Avance III HD 500 NMR spectrometer. Vacuum-liquid column chromatography (VLC) and column chromatography (CC) were performed on silica gel 60 (Merck, Kieselgel 60, 70–320 mesh), silica gel 60 (Merck, Kieselgel 60, 230–400 mesh) (Darmstadt, Germany), and Sephadex LH-20 (25–100 μm, Pharmacia Fine Chemical Co. Ltd.) (Piscataway, NJ, USA). […] Mouse embryonic preadipocyte 3T3-L1 cells were acquired from the American Type Culture Collection (ATCC, Manassas, VA, USA). Dulbecco’s modified Eagle medium (DMEM), fetal bovine serum (FBS), penicillin/streptomycin, and L-glutamine were obtained from Gibco (Gaithersburg, MA, USA). Yeast alpha-glucosidase enzyme, p-nitrophenol-α-D-glucopyranoside, isobutylmethylxanthine, dexamethasone, MTT (methyl-thiazolyl-diphenyl-tetrazolium bromide), Hoechst33342, propidium iodide, dimethylsulfoxide (DMSO), and oil red O were purchased from Sigma-Aldrich (St. Louis, MO, USA). Insulin was obtained from Himedia (Mumbai, India). The radio-immunoprecipitation assay (RIPA) buffer, chemiluminescent substrates, and the bicinchoninic acid (BCA) protein assay kit were from Thermo Scientific (Rockford, IL, USA), and the nitrocellulose membranes were from Bio-Rad Laboratories (Hercules, CA, USA). All primary and secondary antibodies were purchased from Cell Signaling Technology (Danvers, MA, USA). Oxyresveratrol was provided by Prof. Kittisak Likhitwitayawuid.
The assay was based on the inhibition in the sample of α-glucosidase enzyme, which can release p-nitrophenol (PNP) from p-nitrophenyl-α-D-glucoside (PNPG) by hydrolysis. […] For IC50 determination, twofold serial dilution was performed for each sample. Each experiment was accomplished in triplicate. Data are expressed as mean ± SD.

[2] = target: T1, α-glucosidase; assay: biochemical; format: biochemical; settings: for type of enzyme inhibition: Lineweaver–Burk plots; for Ki: from secondary plot of slopes versus inhibitor concentration, read-out: Ki (inhibitor constant)
Method: The experiment was performed by using Lineweaver–Burk plots of the reciprocal of velocity (1/V) against the reciprocal of substrate concentration (1/[S]) (Figure 2). […] A secondary plot of each compound was then constructed to evaluate the inhibition constant (Ki).
as §1
The kinetic study of enzyme inhibition was analyzed by the double reciprocal Lineweaver–Burk plot (1/V versus 1/[S]). […] The reaction was monitored every 5 min for a total time of 25 min and measured at 405 nm by a microplate reader. Each experiment was performed in triplicate. The Ki value was estimated by constructing a secondary plot which is plotted by the slopes of the double-reciprocal lines versus inhibitor concentration.

[3] = system: 3T3-L1 cells; assay: MTT viability assay in preadipocytes; format: cell-based, Mouse; settings: 20 µM, 48 h
Method: To evaluate the effect of D. delacourii extracts on cell viability, 3T3-L1 preadipocytes were seeded into 96-well plates at density of 2 × 10^3 cells/well and allowed to attach overnight at 37 °C. Then, the cells were further cultured with extracts (5 μg/mL), compounds (20 μM), or left untreated for 48 h before adding of 0.45 mg/mL MTT solution to assess cell viability. After incubation for 3 h at 37 °C and kept from light, the optical density (OD) of the purple formazan product dissolved in DMSO was measured at 570 nm using a microplate reader (Anthros, Durham, NC, USA). The relative OD ratio of treated to non-treated cells was presented as percentage cell viability.

[4] = system: 3T3-L1 cells; assay: adipocyte differentiation / lipid accumulation by oil red O staining; format: cell-based, Mouse; settings: for IC50: Mus musculus, 3T3-L1, 0–50 µM, oil red O staining, 3T3-L1 cells; for reduction in oil red O staining: differentiated 3T3-L1 cells
Method: Mouse embryonic preadipocyte 3T3-L1 cells were cultured in DMEM containing 10% FBS, 100 units/mL of penicillin/streptomycin, and 2 mmol/L of L-glutamine under humidified conditions of 5% CO2 at 37 °C until 70–80% confluence was reached. For differentiation into adipocyte, preadipocyte 3T3-L1 cells were incubated with differentiation media composed of 10% FBS, 0.5 mM isobutylmethylxanthine, 1 μM dexamethasone, and 5 µg/mL insulin in DMEM with or without test compound for 2 days. Then, the differentiation media was replaced with culture media containing 5 µg/mL of insulin. After further incubation for 2 days, the cells were maintained in complete DMEM, which was changed every 2 days until adipocytes containing lipid droplets were observed under microscope.
The lipid droplets presenting in differentiated adipocytes were detected via oil red O staining. After the differentiation process, 3T3-L1 cells were fixed with 10% formalin for 45 min and further incubated with oil red O solution at room temperature for 1 h. After washing with 60% isopropanol for three times, oil red O-stained cells were captured using a Nikon Ts2 inverted optical microscope (Tokyo, Japan). For quantification, cellular oil red O was extracted using absolute isopropanol for measurement of OD at 570 nm by microplate reader (Anthros, Durham, NC, USA). The percentage of oil red O staining was calculated relative to the total protein content determined by BCA assay.

[5] = system: 3T3-L1 cells; assay: cell death detection by Hoechst33342/propidium iodide costaining; format: cell-based; settings: 20 µM, 48 h
Method: The cytotoxicity of D. delacourii extracts was confirmed via cell death detection using costaining of Hoechst33342 and propidium iodide. After 48 h incubation with indicated treatment, the cells were further incubated with nuclear staining solution containing 2 μg/mL of Hoechst33342 and 1 μg/mL of propidium iodide for 30 min. The mode of cell death was observed under a fluorescence microscope (Olympus IX51 with DP70, Olympus Corp., Shinjuku-ku, Tokyo, Japan).

[6] = system: p-GSK3β/GSK3β; assay: Western blot of p-GSK3β/GSK3β in differentiating 3T3-L1 cells; format: cell-based, Mouse; settings: 20 µM, 38–48 h
Source text: Due to the expression of adipogenic transcription factors also modulated via Akt/GSK3β [46, 47, 48], the alteration of the p-GSK3β/GSK3β level was additionally examined in densifloral B-treated 3T3-L1 cells. The phosphorylation by p-Akt results in the inactivation of the GSK3β degradation complex following the initiation of targeted gene expression.
(§2) After the indicated treatment, 3T3-L1 cells were washed with phosphate-buffered saline (PBS, pH 7.4), then the cell membranes were broken using RIPA buffer supplemented with a protease inhibitor cocktail. After incubation on ice for 45 min, the cell lysates were centrifuged at 12,000 rpm at 4 °C for 15 min to collect the clear supernatant containing cellular protein, which was measured for total protein content using a BCA assay kit. The total protein (30 µg) from each sample was loaded and separated onto 10% sodium dodecyl sulfate-polyacrylamide gel electrophoresis (SDS-PAGE). […] The reactive protein signals exposed with chemiluminescent substrates were captured and quantified using Chemiluminescent ImageQuant LAS 4000 (GE Healthcare Bio-Sciences AB, Björkgatan, Uppsala, Sweden).

[7] = system: p-AMPKα; assay: Western blot of p-AMPKα in differentiating 3T3-L1 cells; format: cell-based, Mouse; settings: 20 µM, 38 h and 48 h
Source text: (§3) Recent reports indicate that the downregulation of PPARγ and C/EBPα are correlated with the activation of AMPKα/β and ACC [43]. […] The increased expression level of p-ACC/ACC (Figure 5b), p-AMPKα/AMPKα (Figure 5c), and p-AMPKβ1/AMPKβ1/2 (Figure 5f) was correlated with suppression of PPARγ and C/EBPα protein expression (Figure 4e) as well as lipid accumulation in differentiated 3T3-L1 cells (Figure 4a). The results presented in this study correspond with the evidence of the stimulation of AMPK and ACC protein being associated with the inhibition of 3T3-L1 adipocyte differentiation.
as §2

[8] = system: p-Akt; assay: Western blot of p-Akt in differentiating 3T3-L1 cells; format: cell-based, Mouse; settings: 20 µM, 38–48 h
Source text: as §3, §2

[9] = system: p-ACC; assay: Western blot of p-ACC in differentiating 3T3-L1 cells; format: cell-based, Mouse; settings: 20 µM, 38 h and 48 h
Source text: as §3, §2

[10] = system: PPARγ; assay: Western blot of PPARγ in differentiating 3T3-L1 cells; format: cell-based, Mouse; settings: 20 µM, 38 h and 48 h, versus untreated control
Method: (§4) Adipogenesis involves a network of transcription factors that contribute to adipocyte differentiation and lipid accumulation. Although the adipogenic gene CCAAT-enhancer-binding protein beta (C/EBPβ) is expressed soon after exposure to the adipogenic inducers, the upregulation of PPARγ and C/EBPα is acquired after 36–48 h of the induction. In this regard, the translational level of PPARγ and C/EBPα was examined to elucidate the anti-adipogenic mechanism in preadipocyte 3T3-L1 cells cultured with 20 µM densifloral B (3) at both early (38 h) and late (48 h) stage. Western blot analysis indicated the prolong expression of PPARγ and C/EBPα, the adipogenic transcription factors, in 3T3-L1 cells from early until late stage of adipogenic process. […]
as §2, with “kit.” for “kit. The total protein (30 µg) from each sample was loaded and separated onto 10% sodium dodecyl sulfate-polyacrylamide gel electrophoresis (SDS-PAGE).”

[11] = system: C/EBPα; assay: Western blot of C/EBPα in differentiating 3T3-L1 cells; format: cell-based, Mouse; settings: 20 µM, 38 h and 48 h, versus untreated control
Method: as §4
as §2, with “kit.” for “kit. The total protein (30 µg) from each sample was loaded and separated onto 10% sodium dodecyl sulfate-polyacrylamide gel electrophoresis (SDS-PAGE).”

[12] = system: p-AMPKβ1; assay: Western blot of p-AMPKβ1 in differentiating 3T3-L1 cells; format: cell-based, Mouse; settings: 20 µM, 38 h and 48 h
Source text: as §3, §2

[13] = read-out: α-Glucosidase inhibitory activity IC50
[14] = inhibitor dose 12 μM, substrate 0.25-2.0 mM

T1 sequence (P53341 whole entry): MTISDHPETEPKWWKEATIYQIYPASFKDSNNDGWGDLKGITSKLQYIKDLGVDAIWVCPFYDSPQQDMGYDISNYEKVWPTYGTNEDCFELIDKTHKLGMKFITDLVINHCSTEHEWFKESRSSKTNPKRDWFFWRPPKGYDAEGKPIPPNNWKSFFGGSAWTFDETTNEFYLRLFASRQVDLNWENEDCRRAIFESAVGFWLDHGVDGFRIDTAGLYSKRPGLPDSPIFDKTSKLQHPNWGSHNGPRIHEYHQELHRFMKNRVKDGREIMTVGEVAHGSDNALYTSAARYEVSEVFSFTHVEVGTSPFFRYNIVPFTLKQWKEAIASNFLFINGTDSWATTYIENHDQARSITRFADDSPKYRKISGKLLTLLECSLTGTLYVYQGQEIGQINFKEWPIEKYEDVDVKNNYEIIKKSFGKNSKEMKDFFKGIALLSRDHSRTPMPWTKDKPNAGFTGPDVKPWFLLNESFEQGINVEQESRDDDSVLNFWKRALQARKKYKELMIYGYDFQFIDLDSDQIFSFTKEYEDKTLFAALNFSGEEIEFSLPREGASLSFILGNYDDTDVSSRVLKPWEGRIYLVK

COc1cc(O)c2c(c1)CCc1cc(Oc3c(OC)cc(O)c4c3CCc3cc(O)ccc3-4)ccc1-2 [Phoyunnanin E (10), phoyunnanin E]
IC50 [1, 13]: 8.9 ± 0.8 µM | type of enzyme inhibition [2]: non-competitive | Ki [2]: 5.89 µM | Vmax [2, 14]: 0.049 ∆OD/min | Vmax ([2]; inhibitor dose 22 μM, substrate 0.25-2.0 mM): 0.024 ∆OD/min

Oc1cc(O)cc(/C=C/c2ccc(O)cc2O)c1 [oxyresveratrol, reference compound]
viability / cytotoxicity in 3T3-L1 cells [3]: no change | IC50 [4]: 21.1 ± 1.5 µM | oil red O staining percentage compared with control (in words) ([4]; at 20 µM): lower oil red O staining percentage | cell death [5]: no change

C[C@H]1O[C@H](O[C@H]2[C@H](O)[C@@H](O)[C@@H](O[C@H]3[C@H](O)[C@@H](O)C(O)O[C@@H]3CO)O[C@@H]2CO)[C@H](O)[C@@H](O)[C@@H]1N[C@H]1C=C(CO)[C@@H](O)[C@H](O)[C@H]1O (some centres unmarked) [Acarbose, acarbose, reference compound]
type of enzyme inhibition [2]: competitive type of inhibition | Km ([2]; inhibitor dose 465 μM): 4.17 mM | Vmax ([2]; inhibitor dose 465 μM): 0.10 ∆OD/min | Km ([2]; inhibitor dose 930 μM): 6.47 mM | Vmax ([2]; inhibitor dose 930 μM): 0.11 ∆OD/min

COc1cc(O)c2c(c1)CCc1cc(O)ccc1-2 [Lusianthridin (8), lusianthridin]
IC50 [1, 13]: 195 ± 9.6 µM

COc1cc(O)cc(CCc2ccc(O)c(OC)c2)c1 [Gigantol (6), gigantol]
IC50 [1, 13]: 191 ± 6.8 µM

COc1cc(O)c2c(c1)CCc1cc(O)c(-c3c(OC)cc(O)c4c3CCc3cc(O)ccc3-4)cc1-2 [Phoyunnanin C (11), phoyunnanin C]
IC50 [1, 13]: 12.6 ± 0.9 µM | type of enzyme inhibition [2]: non-competitive | Ki [2]: 5.97 µM | Vmax [2, 14]: 0.049 ∆OD/min | Vmax ([2]; inhibitor dose 24 μM, substrate 0.25-2.0 mM): 0.023 ∆OD/min

COC1=CC(=O)c2c(ccc3cc(O)ccc23)C1=O [Densifloral B (3), densifloral B]
viability / cytotoxicity in 3T3-L1 cells [3]: no cytotoxicity | p-GSK3β/GSK3β expression level [6]: significantly lessened | phosphorylated AMPKα (p-AMPKα) [7]: upregulated | IC50 [4]: 14.8 ± 1.6 µM | reduction in oil red O staining ([4]; at 20 µM): ~65.2% | activated Akt (p-Akt) [8]: suppressed | phosphorylated ACC (p-ACC) [9]: upregulated | expression level of PPARγ [10]: restrained | expression level of C/EBPα [11]: restrained | phosphorylated AMPKβ1 (p-AMPKβ1) [12]: upregulated

COc1cc(O)c2c(c1-c1c(OC)cc(O)c3c1CCc1cc(O)ccc1-3)CCc1cc(O)ccc1-2 [4,4′,7,7′-tetrahydroxy-2,2′-dimethoxy-9,9′,10,10′-tetrahydro-1,1′-biphenanthrene]
IC50 [1]: 18.4 ± 3.4 µM

COC1=CC(=O)C2=C(CCc3cc(O)ccc32)C1=O [Ephemeranthoquinone (2), ephemeranthoquinone]
viability / cytotoxicity in 3T3-L1 cells [3]: significantly decreased viability | reduction in oil red O staining ([4]; at 20 µM): approximately 64.7%

COc1cc(O)cc2ccc3cccc(O)c3c12 [Moscatin (4), moscatin]
IC50 [1, 13]: 390 ± 9.8 µM
